Tests used:
Tyrosinase [1] = biological target: T1, Tyrosinase (Agaricus bisporus, UniProt O42713); experiment: Inhibition of mushroom tyrosinase using L-3,4- dihydroxyphenylalanine as substrate measured for 5 mins by spectrophotometric analysis
T1 sequence (O42713 whole entry): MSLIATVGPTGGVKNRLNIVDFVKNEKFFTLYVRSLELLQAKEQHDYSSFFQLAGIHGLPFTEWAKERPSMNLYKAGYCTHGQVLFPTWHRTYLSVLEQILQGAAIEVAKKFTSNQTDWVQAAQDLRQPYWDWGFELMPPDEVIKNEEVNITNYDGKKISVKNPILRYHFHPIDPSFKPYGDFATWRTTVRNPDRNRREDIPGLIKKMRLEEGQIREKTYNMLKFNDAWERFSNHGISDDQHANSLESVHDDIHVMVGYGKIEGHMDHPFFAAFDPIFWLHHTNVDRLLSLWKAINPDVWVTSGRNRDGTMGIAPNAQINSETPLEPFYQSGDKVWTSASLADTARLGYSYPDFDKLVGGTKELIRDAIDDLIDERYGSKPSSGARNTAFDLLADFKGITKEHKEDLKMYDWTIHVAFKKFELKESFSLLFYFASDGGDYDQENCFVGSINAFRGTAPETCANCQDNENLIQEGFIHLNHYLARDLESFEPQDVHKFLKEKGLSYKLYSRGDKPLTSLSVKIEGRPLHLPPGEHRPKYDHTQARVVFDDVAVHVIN

Tyrosinase [2] = biological target: T2, Tyrosinase (Homo sapiens, UniProt P14679); experiment: Inhibition of tyrosinase
T2 sequence (P14679 whole entry): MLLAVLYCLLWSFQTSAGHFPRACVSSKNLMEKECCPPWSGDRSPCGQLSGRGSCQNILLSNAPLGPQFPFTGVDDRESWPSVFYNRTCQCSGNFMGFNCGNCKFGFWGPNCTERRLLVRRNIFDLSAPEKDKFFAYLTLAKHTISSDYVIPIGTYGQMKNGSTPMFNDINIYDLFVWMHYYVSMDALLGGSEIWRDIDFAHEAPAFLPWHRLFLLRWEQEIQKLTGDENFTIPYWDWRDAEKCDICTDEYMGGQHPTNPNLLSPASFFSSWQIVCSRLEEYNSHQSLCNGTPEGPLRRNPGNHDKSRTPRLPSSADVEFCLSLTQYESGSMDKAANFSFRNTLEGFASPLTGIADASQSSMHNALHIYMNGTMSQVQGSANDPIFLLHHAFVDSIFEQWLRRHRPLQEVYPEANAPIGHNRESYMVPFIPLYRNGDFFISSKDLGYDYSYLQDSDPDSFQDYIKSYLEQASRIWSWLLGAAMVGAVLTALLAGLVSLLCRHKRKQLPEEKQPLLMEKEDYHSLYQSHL

Tyrosinase [3] = biological target: T1, Tyrosinase; experiment: Non-competitive inhibition of mushroom tyrosinase using L-3,4- dihydroxyphenylalanine as substrate by Lineweaver-Burk double reciprocal plot analysis

Row | Structure (SMILES) | IC50 (Tyrosinase [1]) [µM] | IC50 (Tyrosinase [2]) [µM] | Ki (Tyrosinase [3]) [µM]
1 | CCOc1cccc2cc(-c3ccccc3)c(=O)oc12 | 2070 | – | –
2 | COc1cc(Br)cc2cc(-c3ccccc3)c(=O)oc12 | > 5000 | – | –
3 | O=c1oc2cc(O)ccc2cc1-c1cc(O)cc(O)c1 | – | > 10000 | –
4 | O=c1ccc2ccc(O)cc2o1 [UMBELLIFERONE] | – | 420 | –
5 | O=c1oc2c(O)cccc2cc1-c1ccccc1 | > 5000 | – | –
6 | CCOc1cccc2cc(-c3ccc(OC)cc3)c(=O)oc12 | > 5000 | – | –
7 | O=c1oc2cc(O)ccc2cc1-c1ccccc1 | – | > 10000 | –
8 | O=c1oc2c(O)cc(Br)cc2cc1-c1ccc(O)cc1 | 215 | – | 189
9 | O=c1oc2c(O)cc(Br)cc2cc1-c1ccccc1 | 302 | – | –
10 | O=c1oc2c(O)cccc2cc1-c1ccc(O)cc1 | 1300 | – | –
11 | COc1ccc(-c2cc3cc(Br)cc(OC)c3oc2=O)cc1 | 1360 | – | –
12 | Oc1ccc(/C=C/c2cc(O)cc(O)c2)cc1 [RESVERATROL] | – | 3680 | –
